In the CheMixHub drug solubility set:

Assay: xn = mol fraction of the nth substance listed, in the solute-free solvent

COC(=O)C1=C(C)NC(C)=C(C(=O)OCC(C)C)C1c1ccccc1[N+](=O)[O-] (stereo not drawn) + CCO + O
solubility (g/100 g solution)
Details | 278.15 K | 283.15 K | 288.15 K | 293.15 K | 298.15 K | 303.15 K | 308.15 K | 313.15 K | 318.15 K
x2 = 0.08908 | 0.379 | 0.503 | 0.648 | 0.817 | 0.987 | 1.2 | 1.42 | 1.68 | 1.99
x2 = 0.2068 | 1.23 | 1.53 | 1.87 | 2.25 | 2.73 | 3.28 | 3.94 | 4.74 | 5.64
x2 = 0.3698 | 1.72 | 2.14 | 2.63 | 3.16 | 3.79 | 4.51 | 5.31 | 6.22 | 7.38
x2 = 0.6101 | 2.18 | 2.75 | 3.38 | 4.12 | 5 | 6 | 7.01 | 8.24 | 9.61

O=c1ccc2ccccc2o1 + CCO + O
solubility (g/100 g solution)
Details | 278.15 K | 283.15 K | 288.15 K | 293.15 K | 298.15 K | 303.15 K | 308.15 K | 313.15 K | 318.15 K
x2 = 0.1429 | 0.201 | 0.363 | 0.646 | 1.12 | 1.9 | 3.1 | 4.94 | 7.56 | 12.1
x2 = 0.2857 | 0.809 | 1.49 | 2.82 | 4.84 | 8.59 | 14.1 | 23.6 | 36.2 | 52.4
x2 = 0.4286 | 2.35 | 4.02 | 6.77 | 10.7 | 17.5 | 25.7 | 37.2 | 51.5 | 65.7
x2 = 0.5714 | 3.44 | 5.45 | 9.19 | 13.8 | 21.1 | 30.1 | 41.7 | 56 | 70
x2 = 0.7143 | 3.65 | 5.85 | 9.47 | 14.4 | 21 | 30.5 | 40.9 | 54.9 | 68.7
x2 = 0.8571 | 3.18 | 5.14 | 8.31 | 12.7 | 19.3 | 28.4 | 38.2 | 51.8 | 66.4

Cc1ccc(Nc2nccc(N(C)c3ccc4c(C)n(C)nc4c3)n2)cc1S(N)(=O)=O + CC#N + CCCO
solubility (g/100 g solution)
Details | 288.15 K | 293.15 K | 298.15 K | 303.15 K | 308.15 K | 313.15 K | 318.15 K | 323.15 K | 328.15 K
x2 = 0.2679 | 0.0118 | 0.0186 | 0.0265 | 0.0356 | 0.0456 | 0.0555 | 0.066 | 0.0779 | 0.0924
x2 = 0.4939 | 0.0196 | 0.031 | 0.0432 | 0.057 | 0.0716 | 0.0875 | 0.104 | 0.123 | 0.145
x2 = 0.6871 | 0.0177 | 0.0276 | 0.0399 | 0.0523 | 0.0687 | 0.0849 | 0.102 | 0.12 | 0.143
x2 = 0.8541 | 0.0117 | 0.0175 | 0.0245 | 0.0326 | 0.0408 | 0.0514 | 0.0625 | 0.075 | 0.0903

O=C(CC(=O)c1ccccc1)c1ccccc1 + CC(C)O + O
solubility (g/100 g solution)
Details | 278.15 K | 283.15 K | 288.15 K | 293.15 K | 298.15 K | 303.15 K | 308.15 K | 313.15 K | 318.15 K
x2 = 0.2 | 0.0987 | 0.114 | 0.14 | 0.185 | 0.222 | 0.277 | 0.338 | 0.422 | 0.528
x2 = 0.4 | 0.264 | 0.353 | 0.459 | 0.618 | 0.711 | 1.05 | 1.26 | 1.73 | 4.77
x2 = 0.6 | 0.61 | 0.936 | 1.23 | 1.34 | 1.47 | 1.91 | 2.36 | 3.27 | 4.94
x2 = 0.8 | 0.977 | 1.43 | 1.48 | 2.1 | 2.32 | 2.93 | 3.69 | 4.5 | 7.02

COC(=O)C1=C(C)NC(C)=C(C(=O)OCC(C)C)C1c1ccccc1[N+](=O)[O-] (stereo not drawn) + CC(C)O + O
solubility (g/100 g solution)
Details | 278.15 K | 283.15 K | 288.15 K | 293.15 K | 298.15 K | 303.15 K | 308.15 K | 313.15 K | 318.15 K
x2 = 0.06974 | 0.651 | 0.819 | 1.02 | 1.25 | 1.49 | 1.76 | 2.04 | 2.35 | 2.71
x2 = 0.1666 | 1.78 | 2.22 | 2.67 | 3.18 | 3.8 | 4.49 | 5.28 | 6.22 | 7.31
x2 = 0.3103 | 2.4 | 2.84 | 3.46 | 4 | 4.73 | 5.54 | 6.37 | 7.36 | 8.44
x2 = 0.5454 | 3.18 | 3.82 | 4.5 | 5.27 | 6.2 | 7.21 | 8.34 | 9.68 | 11.1
